Key:
[1] = system: panel of NRTI and NNRTI resistant HIV-1; test: PhenoSense reporter assay, panel of ten resistant viruses; assay type: cell-based; details: FIG. 2; for susceptibility of the resistant virus panel: all viruses of the panel
Description: Antiviral activity also can be quantitatively measured using a PhenoSense™ assay. A PhenoSense™ assay uses nucleic acid amplification to derive HIV protease and reverse transcriptase nucleic acid sequences from plasma. The patient-derived sequences are incorporated into a viral vector to construct a resistance test vector (RTV). The viral vector also contains an indicator or reporter gene (e.g., green fluorescent protein, luciferase, beta galactosidase, etc.) inserted within a deleted portion of the HIV envelope gene. The reporter gene is under the control of a strong promoter (e.g., a CMV promoter) in the RTV.
The PhenoSense™ assay is performed by introducing the RTV nucleic acid sequence into host cells, collecting virus particles after transfection, and using the virus particles to infect target cells. Drug susceptibility is measured by comparing reporter gene activity produced in the presence and absence of drugs. The presence of drug can be one or more different concentrations, for example, several titrated concentrations.
The data are analyzed by plotting the percent inhibition of viral replication, as measured by reporter gene activity, against the log10 concentration of drug for the patient virus (in the RTV) and a drug sensitive reference virus. The resulting drug susceptibility curve is used to calculate the concentration of drug required to inhibit viral replication by 50% (IC50). A shift in the patient inhibition curve toward a higher drug concentration as compared to the curve of the drug-sensitive reference virus is interpreted as reduced drug susceptibility. A shift in the patient inhibition curve toward a lower drug concentration as compared to the curve of the drug-sensitive reference virus is interpreted as increased drug susceptibility. PhenoSense™ can be conducted by a commercial service provider, for example, Monogram Biosciences, South San Francisco, Calif.
All Phenosense™ assays were performed at Virologic, Inc as described (Petropoulos, et al. (2000) Antimicrob Agents Chemother 44:920). Briefly, the envelope gene is deleted from wild type HIV-1 and luciferase reporter inserted under control of a strong CMV promoter. Viral stocks are produced by co-transfection of producer cells with the recombinant viral DNA and a vector that expresses envelope protein from an amphotropic murine leukemia virus. Pseudotyped viral particles are replication defective and only undergo one round of infection. Expression of the luciferase gene in target cells is dependent on a single round of infection.
The activity of Thiovir™ was evaluated against viruses that are resistant to common NRTI and NNRTI drugs using the Phenosense™ reporter system (Petropoulos, supra). […]

HIV in H9 T-cells = assay type: cell-based; details: p24 assay; combined with tenofovir at a ratio of 1:1
[2] = system: Foscarnet resistant HIVLAI, selection 1 (L214F, R172K); test: IC50 by MAGI assay on selected resistant virus; assay type: cell-based, HIV-1; details: Drug Resistant Virus: Foscarnet (Selection # 1)
Experimental: (§1) Thiovir™ and foscarnet resistant viruses were selected by in vitro passage of HIVLAI on H9 cells in the presence of escalating concentrations of drug. Resistant virus was evaluated for phenotypic changes by IC50 determination using the MAGI assay. Furthermore, the viral DNA was sequenced to determine genotypic variations (Table 4). Two independent 13 to 15 round selections were performed.

[3] = system: Foscarnet resistant HIVLAI, selection 2 (L214F, M184I); test: IC50 by MAGI assay on selected resistant virus; assay type: cell-based, HIV-1; details: Drug Resistant Virus: Foscarnet (Selection # 2)
Experimental: as §1

[4] = system: Thiovir™ resistant HIVLAI, selection 1 (L214F, R172K, Q174R); test: IC50 by MAGI assay on selected resistant virus; assay type: cell-based, HIV-1; details: for Susceptibility Index (IC50 Resistant Virus/IC50 Purent Virus): Drug Resistant Virus: Thiovir ™ (Selection # 1), MAGI assay
Experimental: as §1

[5] = system: Thiovir™ resistant HIVLAI, selection 2 (L214F, M184I); test: IC50 by MAGI assay on selected resistant virus; assay type: cell-based, HIV-1; details: for Susceptibility Index (IC50 Resistant Virus/IC50 Purent Virus): Drug Resistant Virus: Thiovir ™ (Selection # 2), MAGI assay
Experimental: as §1

[6] = system: Thiovir™ and foscarnet selected virus; test: Susceptibility of selected viruses; assay type: cell-based, HIV-1; details: both Thiovir™ and foscarnet selected virus

For `O=C(O)P(=O)(O)O` [Foscarnet, phosphonoformic acid], the “susceptibility of the resistant virus panel” value [1] was “sensitive”, the “susceptibility of the majority of the panel viruses” value [1] was “hypersensitive” and the “drug interaction in words, combined with tenofovir” value (HIV in H9 T-cells) was “additive to antagonistic”. The “Susceptibility Index (IC50 Resistant Virus/IC50 Purent Virus)” value (shortened to “Susceptibility Index”) [2] was 4.1, the “Susceptibility Index” value [3] was 103 and the “Susceptibility Index” value [4] was 4.8. For the same compound, the “Susceptibility Index” value [5] was 85.
For `Cc1ccnc2c1NC(=O)c1cccnc1N2C1CC1` [Nevirapine], the “Susceptibility Index” value [2] was 1.06, the “Susceptibility Index” value [4] was 1.05 and the “susceptibility of selected virus in words” value [6] was “sensitive”.
`O=C(O)P(O)(O)=S` [Thiovir™, thiophosphonoformic acid] was tested, and the “susceptibility of the resistant virus panel” value [1] was “sensitive”, the “susceptibility of the majority of the panel viruses” value [1] was “hypersensitive” and the “drug interaction in words, combined with tenofovir” value (HIV in H9 T-cells) was “synergy”. For the same compound, the “Susceptibility Index” value [2] was 6.3, the “Susceptibility Index” value [3] was 100 and the “Susceptibility Index” value [4] was 4.8. For the same compound, the “resistance of selected virus” value ([4]; first Thiovir™ selected resistant virus) was 4.8 fold, the “Susceptibility Index” value [5] was 113 and the “resistance of selected virus” value ([5]; second Thiovir™ selected resistant virus) was 85 fold.
For `Cc1cn([C@H]2C[C@H](N=[N+]=[N-])[C@@H](CO)O2)c(=O)[nH]c1=O` [Zidovudine, Azidothymidine], the “Susceptibility Index” value [2] was 0.87, the “Susceptibility Index” value [3] was 0.58 and the “Susceptibility Index” value [4] was 0.22. For the same compound, the “Susceptibility Index” value [5] was 0.35.
